CCOc1ccc(C2NC(=O)NC=C2C(=O)c2cc(OC)c(OC)c(OC)c2)cc1 (stereo not given)
solubility (mole fraction) (in PEG-400, 298.15 K): 0.00513 | solubility (mole fraction) (in PEG-400, 303.15 K): 0.00678 | solubility (mole fraction) (in PEG-400, 308.15 K): 0.0083 | solubility (mole fraction) (in PEG-400, 313.15 K): 0.0104 | solubility (mole fraction) (in PEG-400, 318.15 K): 0.0122 | solubility (mole fraction) (in water, 298.15 K): 8.04e-06 | solubility (mole fraction) (in water, 303.15 K): 1.11e-05 | solubility (mole fraction) (in water, 308.15 K): 1.52e-05 | solubility (mole fraction) (in water, 313.15 K): 2.04e-05 | solubility (mole fraction) (in water, 318.15 K): 2.57e-05

Reference: BigSolDB 2.1
